Where two headings read alike, the source gives them in different places.
Tests used:
[1] = Direct transport (apical to basolateral, A → B) across the hBLEC monolayer: Pe and Papp; assay type: in vitro ADME, human; conditions: human, pH 7.4, 50 μM
Procedure: (§1) Prior to the experiments, in order to verify the hBLECs’ monolayer integrity and stability, the permeability parameters were verified as previously reported. Briefly, 1.5 mL Ringer–Hepes solution (RH) (150 mM NaCl, 5.2 mM KCl, 2.2 mM CaCl2, 0.2 mM MgCl26H2O, 6 mM NaHCO3, 5 mM HEPES, pH: 7.4) was added to empty wells of a 12-well plate. Filter insert containing confluent monolayers of hBLECs or not (control) were subsequently placed in the 12-well plate, filled with 0.5 mL RH buffer containing the fluorescent integrity marker LY (50 μM), and then placed on an orbital shaker (150 rpm, Heidolph Titramax 100) at 37 °C in a humidify atmosphere of 95% air/5% CO2. Every 20 min for 1 h, filter inserts were withdrawn from the receiver compartment and placed in the next one. To verify the quantity of LY, at the end of the experiments, aliquots from the donor solution were taken at the end of the experiments and the fluorescence was quantified using a quantification curve of LY as referee. At least three inserts with cells and three without cells were tested in each permeability measurement. The fluorescence was measured using a luminescence spectrometer (LS 50B, Perkin Elmer), using the following excitation/emission wavelength (nm) settings: 432/538. Pe parameters were calculated according to the formulas shown in the Supplementary Information (Equations (7)–(10)). In parallel, as positive control for breakdown of hBLECs, D-mannitol, was used at a concentration of 1.4 M. At this concentration, mannitol induces an osmotic shock, and thus an increase in paracellular permeability.
(§2) Transport experiments were carried out by adding tritium-labeled GM1 or OligoGM1 (1 × 10^6 dpm) to cold GM1 or OligoGM1, respectively, at different concentrations, as specified below.
(§3) To identify and quantify the GM1 or OligoGM1 molecules in every transport experiment, aliquots from apical A (5 μL) and basolateral B (200 μL) compartments were collected at indicated time points and combined with 5 mL of ULTIMA GOLD liquid (PerkinElmer), shaken, and counted for 20 min by liquid scintillation analyzer (TRI-CARB 2100TR, Packard). Resulting radioactivity measures were used to estimate the quantity of the molecules. Experiments were performed on an agitation plate at 37 °C (150 rpm, Heidolph Titramax 100) in a humidify atmosphere of 95% air/5% CO2. At least three inserts with cells were tested in each transport experiment for each condition.
(§4) To examine flux from apical to basolateral compartments (A → B), 1.5 mL RH buffer was added to empty wells of a 12-well plate. Following this, the hBLEC filter was placed in the same 12-well plate and filled with 0.5 mL RH buffer containing 1 × 10^6 dpm of tritiated [^3H]GM1 or [^3H]OligoGM1 plus 50 μM of cold GM1 or OligoGM1 (Figure S3b).
(§5) To establish the time dependence of the transport experiments, hBLEC inserts filled with OligoGM1 were transferred into a new receiver well plate filled with fresh RH buffer every 20 min up to 240 min. The hBLECs’ properties, integrity, and stability were maintained up to 240 min in the transport experiments with RH buffer in the upper and basolateral side (see [28] and Figure S4).
(§6) To establish the dose dependence in the transport experiments, 1 × 10^6 dpm of tritiated [^3H]OligoGM1 plus 5, 10, 50, 100, and 300 μM OligoGM1 solutions were prepared and employed as described above. The hBLECs inserts were transferred into a new RH-filled receiver well plate every 20 min up to 60 min. […]
(§7) To evaluate the possible active transport involvement, the transport of OligoGM1 from apical to basolateral (A → B) compartments was performed at 4 °C, with the aim of inhibiting the active transport mechanism at low temperature. […]

[2] = test system: human brain-like endothelial cells (hBLECs); test: as above; assay type: in vitro ADME
Procedure: as §1, §2, §3, §4, §5, §6, §7

hBLECs = test: Metabolic integrity of OligoGM1 after hBLEC transport (HPTLC autoradiography); assay type: in vitro ADME, human; conditions: basolateral compartment, detection limit 15 dpm
Text: Since OligoGM1 is tritium labeled at position 6 of the external galactose, any possible galactosidase activity present on the plasma membrane of hBLECs can result in external galactose removal, leading to loss of radioactivity from the penta-saccharide. Radiolabeled galactose may pass the BBB or may enter into the cells and be recycled for the biosynthesis of new glycans, so that the radioactivity found may correspond to the galactose or to any possible new glycan rather than to the original oligosaccharide.
Thus, to test the integrity of the OligoGM1 molecule after hBLEC crossing, OligoGM1 solution was prepared in RH buffer at a final concentration of 100 μM plus 1 × 10^6 dpm of tritium-labeled OligoGM1. For the apical–basolateral transport experiment, the hBLEC insert’s apical side was filled with 0.5 mL of the drug solution and placed on 1.5 mL RH buffer-filled well of a 12-well plate. After 60 min, the solution of the receiving compartment (about 1.5 mL) was collected and 200 μL were combined with 5 mL of ULTIMA GOLD liquid (PerkinElmer), shaken, and counted for 20 min by a liquid scintillation analyzer (TRI-CARB 2100TR, Packard).
To verify that the counted radioactivity indeed corresponded to [^3H]OligoGM1, 0.5 mL of receiving compartment solution was lyophilized and suspended in 0.5 mL of methanol. […]

Papp A→B at 60 min, 50 μM ([1]; 60 min, 4 °C (Figure 6d), read-out: Papp A>B at 4 °C): 6.7 ± 0.17 ×10⁻⁶ cm/s | Papp A→B at 60 min, 50 μM ([1]; 60 min, 37 °C, temperature experiment (Figure 6d), read-out: Papp A>B at 37 °C): 8.8 ± 0.24 ×10⁻⁶ cm/s | Papp A→B at 60 min, 50 μM ([1]; after 60 min, hBLEC monolayer, read-out: endothelial permeability Pe (A → B) (converted)): 9.67 ×10⁻⁶ cm/s | influence of BSA on rate of A → B transport ([2]; 50 μM, 0.1% (w/v) BSA in apical solution, 60 min): No difference in the rate of transport | slope of linear regression: % of administered nmol in receiving compartment vs time (min) ([2]; 50 μM, 20-240 min, y = slope × x): 0.1097 | crossing rate / Pe of OligoGM1 relative to GM1 ([2]; 50 μM, hBLECs): 20 fold | time dependence of A → B transport ([2]; 50 μM, up to 240 min): linear time dependence | slope of linear regression: nmol in receiving compartment vs concentration (μM) ([2]; 5-300 μM, 60 min, y = slope × x): 0.04352 | concentration dependence of A → B transport ([2]; 5 to 300 μM, 60 min): proportional increase | metabolic stability after hBLEC crossing (hBLECs): not metabolized by hBLECs
SMILES: CC(=O)NC1C(O)CC(OC2C(O)C(OC3C(CO)OC(O)C(O)C3O)OC(CO)C2OC2OC(CO)C(O)C(OC3OC(CO)C(O)C(O)C3O)C2NC(C)=O)(C(=O)O)OC1C(O)C(O)CO (stereo not drawn) [OligoGM1, β-Gal-(1-3)-β-GalNAc-(1-4)-[α-Neu5Ac-(2-3)]-β-Gal-(1-4)-β-Glc]

— paper PMC7215935, “GM1 Oligosaccharide Crosses the Human Blood–Brain Barrier In Vitro by a Paracellular Route” (International Journal of Molecular Sciences, 2020)
